Test results from US20070128217A1 (priority 2003, published 2007).

Key:
[1] = system: rabbit serum obtained by immunizing a rabbit with the SARS-CoV strain Frankfurt 1; assay type: binding; set-up: Binding of a rabbit serum to linear peptides / Binding of a rabbit serum to looped peptides / Rabbit serum linear peptides / Rabbit serum looped peptides / Binding of a rabbit serum to linear peptides of protein N of SARS-CoV Urbani (Rabbit serum linear peptides) / Binding of a rabbit serum to looped/cyclic peptides of protein N of SARS-CoV Urbani (Rabbit serum looped peptides): unit not given here
[2] = system: control sera (pooled serum of ten healthy LUMC hospital workers; commercial negative donor pooled serum from the Dutch bloodbank); assay type: binding, human; set-up: Binding of Control serum LUMC to linear peptides / Binding of Control serum Blood-bank to linear peptides / Binding of Control serum LUMC to looped peptides / Binding of Control Serum Blood-Bank to Looped peptides / Binding of Control serum LUMC to linear peptides of the protein M of SARS-CoV Urbani / Binding of Control serum Blood-bank to linear peptides of the protein M of SARS-CoV Urbani / Binding of Control serum LUMC to looped peptides of the protein M of SARS-CoV Urbani / Binding of Control Serum Blood-Bank to Looped peptides of the protein M of SARS-CoV Urbani: unit not given here
[3] = system: recombinant human anti-SARS-CoV antibody 03-018; assay type: binding; set-up: Binding of antibody 03-018 to linear peptides of the N protein of SARS-CoV Urbani / Binding of antibody 03-018 to looped/cyclic peptides of the N protein of SARS-CoV Urbani: unit not given here
[4] = system: antibodies in sera from SARS patients (sera 1a, 1b, 2, 6, 37, 62, London, SARS-yellow, SARS-green); assay type: binding, human; set-up: Binding of serum 6 to linear peptides of protein X1 of SARS-CoV Urbani / Binding of serum 37 to linear peptides of protein X1 of SARS-CoV Urbani / Binding of serum 6 to looped/cyclic peptide (PEPSCAN-ELISA) / Binding of serum 37 to looped/cyclic peptide (PEPSCAN-ELISA) / Binding of serum 37 to looped/cyclic peptides of protein X1 of SARS-CoV Urbani / Binding of serum 6 to linear peptides of protein X2 / Binding of serum 37 to linear peptides of protein X2 / Binding of serum 37 to looped/cyclic peptides of protein X2 of SARS-CoV Urbani / Binding of serum 6 to linear peptides of protein M of SARS-CoV Urbani / Binding of serum 37 to linear peptides of protein M of SARS-CoV Urbani / Binding of serum 6 to looped/cyclic peptides of protein M of SARS-CoV Urbani / Binding of serum 37 to looped/cyclic peptides of protein M of SARS-CoV Urbani / Binding of serum 6 to linear peptides of protein X3 of SARS-CoV Urbani / Binding of serum 37 to linear peptides of protein X3 of SARS-CoV Urbani / Binding of serum 37 to looped/cyclic peptides of protein X3 of SARS-CoV Urbani / Binding of serum 6 to linear peptides of protein X4 of SARS-CoV Urbani / Binding of serum 37 to linear peptides of protein X4 of SARS-CoV Urbani / Binding of serum 37 to looped/cyclic peptides of protein X4 of SARS-CoV Urbani / Binding of serum 6 to linear peptides of protein X5 of SARS-CoV Urbani / Binding of serum 37 to linear peptides of protein X5 of SARS-CoV Urbani / Binding of serum 37 to looped/cyclic peptides of protein X5 of SARS-CoV Urbani / Binding of serum 6 to linear peptides of protein N of SARS-CoV Urbani / Binding of serum 37 to linear peptides of protein N of SARS-CoV Urbani / Binding of serum 6 to linear peptide (PEPSCAN-ELISA) / Binding of serum 1a to looped/cyclic peptides of protein N of SARS-CoV Urbani / Binding of serum 1b to looped/cyclic peptides of protein N of SARS-CoV Urbani / Binding of serum 2 to looped/cyclic peptides of protein N of SARS-CoV Urbani / Binding of serum 6 to looped/cyclic peptides of protein N of SARS-CoV Urbani / Binding of serum 37 to looped/cyclic peptides of protein N of SARS-CoV Urbani / Binding of serum 62 to looped/cyclic peptides of protein N of SARS-CoV Urbani / Binding of serum London to looped/cyclic peptides of protein N of SARS-CoV Urbani / Binding of serum SARS-green to looped/cyclic peptides of protein N of SARS-CoV Urbani: unit not given here

Sequence	Binding of a rabbit serum to linear peptides of protein N of SARS-CoV Urbani (Rabbit serum linear peptides) [1]	Binding of a rabbit serum to looped/cyclic peptides of protein N of SARS-CoV Urbani (Rabbit serum looped peptides) [1]	Binding of Control Serum Blood-Bank to Looped peptides [2]	Binding of Control serum Blood-bank to linear peptides [2]	Binding of Control serum LUMC to linear peptides [2]	Binding of Control serum LUMC to looped peptides [2]	Binding of antibody 03-018 to linear peptides of the N protein of SARS-CoV Urbani [3]	Binding of antibody 03-018 to looped/cyclic peptides of the N protein of SARS-CoV Urbani [3]	Binding of serum 1a to linear peptide (PEPSCAN-ELISA) [4]	Binding of serum 1a to looped/cyclic peptides of protein N of SARS-CoV Urbani [4]	Binding of serum 1b to linear peptide (PEPSCAN-ELISA) [4]	Binding of serum 1b to looped/cyclic peptides of protein N of SARS-CoV Urbani [4]	Binding of serum 2 to linear peptide (PEPSCAN-ELISA) [4]	Binding of serum 2 to looped/cyclic peptides of protein N of SARS-CoV Urbani [4]	Binding of serum 6 to looped/cyclic peptides of protein N of SARS-CoV Urbani [4]	Binding of serum 37 to looped/cyclic peptides of protein N of SARS-CoV Urbani [4]	Binding of serum 62 to looped/cyclic peptides of protein N of SARS-CoV Urbani [4]	Binding of serum London to looped/cyclic peptides of protein N of SARS-CoV Urbani [4]	Binding of serum SARS-green to looped/cyclic peptides of protein N of SARS-CoV Urbani [4]	Binding of serum SARS-yellow to looped/cyclic peptides of protein N of SARS-CoV Urbani [4]	also measured
SSRSSSRSRGNSRNS	0.2	0.7	0.7	0.7	0.7	0.7	0.1	0.2	0.2	0.3	0.1	0.3	0.2	0.4	0.3	0.5	0.6	0.5	0.3	0.4	Binding of serum 6 to linear peptide (PEPSCAN-ELISA) [4]: 0.2; Binding of serum 37 to linear peptide (PEPSCAN-ELISA) [4]: 0.5; Binding of serum 62 to linear peptide (PEPSCAN-ELISA) [4]: 0.6; Binding of serum London to linear peptide (PEPSCAN-ELISA) [4]: 0.5; Binding of serum SARS-green to linear peptide (PEPSCAN-ELISA) [4]: 0.3; Binding of serum SARS-yellow to linear peptide (PEPSCAN-ELISA) [4]: 0.7
SSSRSRGNSRNSTPG	0.1	0.4	0.5	0.7	0.6	0.5	0.1	0.2	0.4	0.2	0.2	0.1	0.2	0.3	0.2	0.4	0.3	0.3	0.1	0.1	Binding of serum 6 to linear peptide (PEPSCAN-ELISA) [4]: 0.1; Binding of serum 37 to linear peptide (PEPSCAN-ELISA) [4]: 0.5; Binding of serum 62 to linear peptide (PEPSCAN-ELISA) [4]: 0.5; Binding of serum London to linear peptide (PEPSCAN-ELISA) [4]: 0.5; Binding of serum SARS-green to linear peptide (PEPSCAN-ELISA) [4]: 0.2; Binding of serum SARS-yellow to linear peptide (PEPSCAN-ELISA) [4]: 0.6
STDNNQNGGRNGARP	0.1	0.2	0.5	0.7	0.6	0.5	0.2	0.2		0.3		0.2		0.3	0.2	0.5	0.2	0.3	0.4	0.3	Binding of serum 1a to linear peptides of protein N of SARS-CoV Urbani [4]: 0.2; Binding of serum 1b to linear peptides of protein N of SARS-CoV Urbani [4]: 0.1; Binding of serum 2 to linear peptides of protein N of SARS-CoV Urbani [4]: 0.2; Binding of serum 6 to linear peptides of protein N of SARS-CoV Urbani [4]: 0.1; Binding of serum 37 to linear peptides of protein N of SARS-CoV Urbani [4]: 0.8; Binding of serum 62 to linear peptides of protein N of SARS-CoV Urbani [4]: 0.7; Binding of serum London to linear peptides of protein N of SARS-CoV Urbani [4]: 0.5; Binding of serum SARS-green to linear peptides of protein N of SARS-CoV Urbani [4]: 0.4; Binding of serum SARS-yellow to linear peptides of protein N of SARS-CoV Urbani [4]: 0.6
